According to patent publication US20180243273A1, “Composition for Intravesical Administration for Treating Bladder Pain” (priority 2017, published 2018):

Test: Storage of compositions with/without nitrogen-gassing and ascorbic acid, assay and impurities
Type: physicochemical
Conditions: phosphate buffer
Description: A possible beneficial effect of nitrogen-gassing during manufacturing and storage was assessed. Selected compositions were manufactured by dissolution of API via stirring for 24 h and stored after treatment with/without nitrogen at 25° C. or 6° C. for up to 28 days.
The manufactured batches consisted of phosphate buffer and vitamin E TPGS and were compared to compositions containing ascorbic acid 1%, additionally. API was used at 0.01 wt.-%, 0.02 wt.-% or 0.04 w.-%. The compositions were saturated with API, where 10 mg, 20 mg or 40 mg were dissolved in 100 g buffer containing 0.5 wt.-%, wt.-1% or 2 wt.-% vitamin E TPGS, respectively. The compositions were transferred into polystyrene bottles and stored at 25° C. or 6° C. A part of the compositions was treated with nitrogen during manufacturing and gassed with nitrogen prior to sealing (see FIG. 18). The compositions were tested for assay and purity of API after manufacturing, as well as after 7, 14 and 28 days.

[1] = vitamin E TPGS 0.5%, Asc. 1%, N2 +, API 0.01%, 6° C., t = 7 d
[2] = vitamin E TPGS 0.5%, Asc. 1%, N2 +, API 0.01%, 6° C., t = 14 d
[3] = vitamin E TPGS 0.5%, Asc. 1%, N2 +, API 0.01%, 6° C., t = 28 d
[4] = vitamin E TPGS 0.5%, Asc. 1%, N2 +, API 0.01%, 25° C., t = 7 d
[5] = vitamin E TPGS 0.5%, Asc. 1%, N2 +, API 0.01%, 25° C., t = 14 d
[6] = vitamin E TPGS 0.5%, Asc. 1%, N2 +, API 0.01%, 25° C., t = 28 d
[7] = vitamin E TPGS 0.5%, Asc. 1%, N2 +, API 0.01%, t = 0
[8] = vitamin E TPGS 0.5%, Asc. 1%, N2 −, API 0.01%, 6° C., t = 7 d
[9] = vitamin E TPGS 0.5%, Asc. 1%, N2 −, API 0.01%, 6° C., t = 14 d
[10] = vitamin E TPGS 0.5%, Asc. 1%, N2 −, API 0.01%, 6° C., t = 28 d
[11] = vitamin E TPGS 0.5%, Asc. 1%, N2 −, API 0.01%, 25° C., t = 7 d
[12] = vitamin E TPGS 0.5%, Asc. 1%, N2 −, API 0.01%, 25° C., t = 14 d
[13] = vitamin E TPGS 0.5%, Asc. 1%, N2 −, API 0.01%, 25° C., t = 28 d
[14] = vitamin E TPGS 0.5%, Asc. 1%, N2 −, API 0.01%, t = 0
[15] = vitamin E TPGS 0.5%, no Asc., N2 +, API 0.01%, 6° C., t = 28 d
[16] = vitamin E TPGS 0.5%, no Asc., N2 +, API 0.01%, 25° C., t = 7 d
[17] = vitamin E TPGS 0.5%, no Asc., N2 +, API 0.01%, 25° C., t = 14 d
[18] = vitamin E TPGS 0.5%, no Asc., N2 +, API 0.01%, t = 0
[19] = vitamin E TPGS 0.5%, no Asc., N2 −, API 0.01%, 6° C., t = 7 d
[20] = vitamin E TPGS 0.5%, no Asc., N2 −, API 0.01%, 6° C., t = 14 d
[21] = vitamin E TPGS 0.5%, no Asc., N2 −, API 0.01%, 6° C., t = 28 d
[22] = vitamin E TPGS 0.5%, no Asc., N2 −, API 0.01%, 25° C., t = 7 d
[23] = vitamin E TPGS 0.5%, no Asc., N2 −, API 0.01%, 25° C., t = 14 d
[24] = vitamin E TPGS 0.5%, no Asc., N2 −, API 0.01%, 25° C., t = 28 d
[25] = vitamin E TPGS 0.5%, no Asc., N2 −, API 0.01%, t = 0
[26] = vitamin E TPGS 1%, Asc. 1%, N2 +, API 0.02%, 6° C., t = 7 d
[27] = vitamin E TPGS 1%, Asc. 1%, N2 +, API 0.02%, 6° C., t = 14 d
[28] = vitamin E TPGS 1%, Asc. 1%, N2 +, API 0.02%, 6° C., t = 28 d
[29] = vitamin E TPGS 1%, Asc. 1%, N2 +, API 0.02%, 25° C., t = 7 d
[30] = vitamin E TPGS 1%, Asc. 1%, N2 +, API 0.02%, 25° C., t = 14 d
[31] = vitamin E TPGS 1%, Asc. 1%, N2 +, API 0.02%, 25° C., t = 28 d
[32] = vitamin E TPGS 1%, Asc. 1%, N2 +, API 0.02%, t = 0
[33] = vitamin E TPGS 1%, no Asc., N2 +, API 0.02%, 6° C., t = 7 d
[34] = vitamin E TPGS 1%, no Asc., N2 +, API 0.02%, 6° C., t = 14 d
[35] = vitamin E TPGS 1%, no Asc., N2 +, API 0.02%, 6° C., t = 28 d
[36] = vitamin E TPGS 1%, no Asc., N2 +, API 0.02%, 25° C., t = 7 d
[37] = vitamin E TPGS 1%, no Asc., N2 +, API 0.02%, 25° C., t = 14 d

In the case of `CN(C)[C@]1(c2cccc(F)c2)CC[C@]2(CC1)c1[nH]c3ccccc3c1CCN2C(=O)/C=C/c1ccccc1` [API, cis-(E)-4-(3-fluorophenyl)-2′,3′,4′,9′-tetrahydro-N,N-dimethyl-2′-(1-oxo-3-phenyl-2-propenyl)-spiro[cyclohexane-1,1′[1H]-pyrido[3,4-b]indol]-4-amine], the Assay [1] was 65.65 µg/mL, the Impurities [1] was 0.65 % (a/a) and the Assay [2] was 65.65 µg/mL. The Impurities [2] was 29.21 % (a/a), the Assay [3] was 65.82 µg/mL and the Impurities [3] was 0.70 % (a/a). For the same compound, the Assay [4] was 63.63 µg/mL, the Impurities [4] was 1.00 % (a/a) and the Assay [5] was 61.53 µg/mL. For the same compound, the Impurities [5] was 1.74 % (a/a), the Assay [6] was 63.95 µg/mL and the Impurities [6] was 1.82 % (a/a). The Assay [7] was 66.61 µg/mL, the Impurities [7] was 0.58 % (a/a) and the Assay [8] was 66.21 µg/mL. The Impurities [8] was 0.70 % (a/a), the Assay [9] was 66.54 µg/mL and the Impurities [9] was 0.83 % (a/a). The Assay [10] was 66.15 µg/mL, the Impurities [10] was 0.70 % (a/a) and the Assay [11] was 65.66 µg/mL. The Impurities [11] was 0.53 % (a/a), the Assay [12] was 65.27 µg/mL and the Impurities [12] was 1.09 % (a/a). The Assay [13] was 61.46 µg/mL, the Impurities [13] was 1.36 % (a/a) and the Assay [14] was 66.81 µg/mL. For the same compound, the Impurities [14] was 0.66 % (a/a), the Assay [15] was 49.80 µg/mL and the Impurities [15] was 0.54 % (a/a). For the same compound, the Assay [16] was 49.76 µg/mL, the Impurities [16] was 0.36 % (a/a) and the Assay [17] was 49.65 µg/mL. The Impurities [17] was 1.19 % (a/a), the Assay [18] was 49.49 µg/mL and the Impurities [18] was 0.71 % (a/a). The Assay [19] was 50.43 µg/mL, the Impurities [19] was 0.63 % (a/a) and the Assay [20] was 50.71 µg/mL. The Impurities [20] was 0.94 % (a/a), the Assay [21] was 50.27 µg/mL and the Impurities [21] was 0.52 % (a/a). For the same compound, the Assay [22] was 50.56 µg/mL, the Impurities [22] was 0.45 % (a/a) and the Assay [23] was 50.23 µg/mL. The Impurities [23] was 1.13 % (a/a), the Assay [24] was 50.36 µg/mL and the Impurities [24] was 1.06 % (a/a). For the same compound, the Assay [25] was 50.22 µg/mL, the Impurities [25] was 0.68 % (a/a) and the Assay [26] was 109.93 µg/mL. The Impurities [26] was 0.73 % (a/a), the Assay [27] was 110.67 µg/mL and the Impurities [27] was 0.90 % (a/a). The Assay [28] was 110.25 µg/mL, the Impurities [28] was 0.91 % (a/a) and the Assay [29] was 107.03 µg/mL. For the same compound, the Impurities [29] was 1.04 % (a/a), the Assay [30] was 106.77 µg/mL and the Impurities [30] was 1.27 % (a/a). The Assay [31] was 93.34 µg/mL, the Impurities [31] was 1.79 % (a/a) and the Assay [32] was 110.99 µg/mL. The Impurities [32] was 0.62 % (a/a), the Assay [33] was 93.47 µg/mL and the Impurities [33] was 0.64 % (a/a). The Assay [34] was 93.72 µg/mL, the Impurities [34] was 0.75 % (a/a) and the Assay [35] was 93.93 µg/mL. For the same compound, the Impurities [35] was 0.58 % (a/a), the Assay [36] was 93.61 µg/mL and the Impurities [36] was 0.69 % (a/a). For the same compound, the Assay [37] was 93.28 µg/mL and the Impurities [37] was 0.86 % (a/a).
